In patent publication US11839613B2, “Pyrimidine derivatives as PGE2 receptor modulators” (IDORSIA PHARMACEUTICALS LTD, priority 2017, dated 2023):

What was measured:
PTGER2 (EP2) = PTGER2 (EP2) (Homo sapiens (Human), UniProt P43116); experiment: hEP2 b-arrestin assay (PathHunter HEK 293 PTGER2 b-arrestin cells); type: cell-based; details: antagonistic activity, beta-arrestin assay; read-out: hEP2 b-arr IC50
Experimental: Plate is pre-incubated 15 minutes at 37° C. Then five microliters of PGE2 (final conc. 5 μM) are transferred into the assay plate. Plate is incubated 120 minutes at 37° C.
(each concentration is measured in duplicate)

EP2 = EP2 (Homo sapiens (Human), UniProt P43116); experiment: hEP2 cAMP assay (SF295 glioblastoma cells, HTRF cAMP); type: cell-based; details: antagonistic activity
EP2, sequence (P43116 whole entry): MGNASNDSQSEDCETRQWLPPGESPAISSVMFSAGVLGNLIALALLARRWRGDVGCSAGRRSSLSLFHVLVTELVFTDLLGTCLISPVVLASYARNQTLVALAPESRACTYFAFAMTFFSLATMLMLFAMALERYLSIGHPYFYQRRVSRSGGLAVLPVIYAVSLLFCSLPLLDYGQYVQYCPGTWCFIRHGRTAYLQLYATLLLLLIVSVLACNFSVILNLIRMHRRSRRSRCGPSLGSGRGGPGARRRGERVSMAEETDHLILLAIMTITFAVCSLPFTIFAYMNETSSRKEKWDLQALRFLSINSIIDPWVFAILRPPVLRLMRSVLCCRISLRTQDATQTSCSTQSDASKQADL
In short: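 PGE2-driven cAMP accumulation was measured by HTRF in SF295 cells, which express endogenous EP2 only. Cells in assay buffer with 2 mM IBMX were pre-incubated 45 min at RT, then incubated 30 min at RT. Detection used competition between cellular cAMP and d2-cAMP for a cryptate anti-cAMP antibody.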

EP4 = EP4 (Homo sapiens (Human), UniProt P35408); experiment: hEP4 cAMP assay (BT549 breast cancer cells, HTRF cAMP); type: cell-based; details: antagonistic activity, PGE2 6 nM
EP4, sequence (P35408 whole entry): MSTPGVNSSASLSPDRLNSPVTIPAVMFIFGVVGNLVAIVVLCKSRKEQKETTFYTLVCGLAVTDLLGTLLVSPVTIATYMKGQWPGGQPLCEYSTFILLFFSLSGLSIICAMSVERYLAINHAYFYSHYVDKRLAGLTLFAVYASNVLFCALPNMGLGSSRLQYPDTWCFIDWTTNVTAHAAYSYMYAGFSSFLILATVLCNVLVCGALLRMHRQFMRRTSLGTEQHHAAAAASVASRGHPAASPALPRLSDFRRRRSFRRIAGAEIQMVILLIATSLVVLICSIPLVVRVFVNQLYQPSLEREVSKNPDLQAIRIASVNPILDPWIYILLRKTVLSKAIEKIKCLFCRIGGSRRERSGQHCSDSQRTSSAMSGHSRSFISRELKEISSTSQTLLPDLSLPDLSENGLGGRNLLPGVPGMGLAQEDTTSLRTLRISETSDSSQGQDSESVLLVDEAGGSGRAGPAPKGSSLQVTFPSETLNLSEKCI
In short: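 cAMP accumulation quantified by HTRF competition between cellular cAMP and d2-labeled cAMP for cryptate anti-cAMP antibody. Cells: endogenously EP4-expressing BT549, buffer with 2 mM IBMX; 45 min RT compound preincubation preceded 30 min RT challenge with PGE2 at 6 nM final.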

PTGER4 (EP4) = PTGER4 (EP4) (Homo sapiens (Human), UniProt P35408); experiment: cell-based
PTGER4 (EP4), sequence (P35408 whole entry): as above

PTGER2 (EP2), sequence (P43116 whole entry): as the sequence (P43116 whole entry) above

| Structure (SMILES) | IC50 (PTGER2 (EP2)) | IC50 (EP2) | IC50 (EP4) | IC50 (PTGER4 (EP4)) |
| --- | --- | --- | --- | --- |
| CCCc1cc(-c2cc(NCCc3ccc4ccccc4c3C)ncn2)ccc1C(=O)O [Ex 28, 4-{6-[2-(1-Methyl-naphthalen-2-yl)-ethylamino]-pyrimidin-4-yl}-2-propyl-benzoic acid] | 0.135 µM | 0.074 µM | 0.061 µM | 0.096 µM |
| CCOc1cc(-c2cc(NCCc3cc4c(cc3C)OCCO4)ncn2)sc1C(=O)O [Ex 30, 3-Ethoxy-5-{6-[2-(7-methyl-2,3-dihydro-benzo[1,4]dioxin-6-yl)-ethylamino]-pyrimidin-4-yl}-thiophene-2-carboxylic acid] | 0.029 µM | 0.014 µM | 0.017 µM | 0.051 µM |
| CCOc1cc(-c2cc(NCCc3ccc4[nH]ccc4c3)ncn2)sc1C(=O)O [Ex 32, 3-Ethoxy-5-{6-[2-(1H-indol-5-yl)-ethylamino]-pyrimidin-4-yl}-thiophene-2-carboxylic acid] | 0.199 µM | 0.161 µM | 0.018 µM | 0.056 µM |
| CCOc1cc(-c2cc(NCCc3cc4ccsc4cc3C)ncn2)sc1C(=O)O [Ex 34, 3-Ethoxy-5-{6-[2-(6-methyl-benzo[b]thiophen-5-yl)-ethylamino]-pyrimidin-4-yl}-thiophene-2-carboxylic acid] | 0.006 µM | 0.008 µM | 0.018 µM | 0.025 µM |
| O=C(O)c1cc2cc(-c3cc(NCCc4ccc5sccc5c4)ncn3)ccc2o1 [Ex 38, 5-[6-(2-Benzo[b]thiophen-5-yl-ethylamino)-pyrimidin-4-yl]-benzofuran-2-carboxylic acid] | 0.226 µM | 0.21 µM | 0.028 µM | 0.123 µM |
| CCOc1cc2c(cc1CCNc1cc(-c3cc(OCC)c(C(=O)O)s3)ncn1)OCCO2 [Ex 39, 3-Ethoxy-5-{6-[2-(7-ethoxy-2,3-dihydro-benzo[1,4]dioxin-6-yl)-ethylamino]-pyrimidin-4-yl}-thiophene-2-carboxylic acid] | 0.004 µM | 0.002 µM | 0.019 µM | 0.014 µM |
| CCOc1cc(-c2cc(NCCc3cc4ccccc4cc3C)ncn2)sc1C(=O)O [Ex 40, 3-Ethoxy-5-{6-[2-(3-methyl-naphthalen-2-yl)-ethylamino]-pyrimidin-4-yl}-thiophene-2-carboxylic acid] | 0.126 µM | 0.228 µM | 0.02 µM | 0.025 µM |
| CCOc1cc(-c2cc(NCCc3ccc4c(c3)OCCO4)ncn2)sc1C(=O)O [Ex 41, 5-{6-[2-(2,3-Dihydro-benzo[1,4]dioxin-6-yl)-ethylamino]-pyrimidin-4-yl}-3-ethoxy-thiophene-2-carboxylic acid] | 0.405 µM | 0.164 µM | 0.021 µM | 0.03 µM |
| CCOc1cc(-c2cc(NCCc3ccc4ccn(C)c4c3)ncn2)sc1C(=O)O [Ex 42, 3-Ethoxy-5-{6-[2-(1-methyl-1H-indol-6-yl)-ethylamino]-pyrimidin-4-yl}-thiophene-2-carboxylic acid] | 0.24 µM | 0.137 µM | 0.021 µM | 0.025 µM |
| CCOc1cc(-c2cc(NCCc3ccc4scc(C)c4c3)ncn2)sc1C(=O)O [Ex 47, 3-Ethoxy-5-{6-[2-(3-methyl-benzo[b]thiophen-5-yl)-ethylamino]-pyrimidin-4-yl}-thiophene-2-carboxylic acid] | 0.045 µM | 0.091 µM | 0.022 µM | 0.085 µM |
| CCOc1cc(-c2cc(NCCc3cc(Cl)c4c(c3)OCCO4)ncn2)sc1C(=O)O [Ex 51, 5-{6-[2-(8-Chloro-2,3-dihydro-benzo[1,4]dioxin-6-yl)-ethylamino]-pyrimidin-4-yl}-3-ethoxy-thiophene-2-carboxylic acid] | 0.23 µM | 0.207 µM | 0.025 µM | 0.022 µM |
| CCOc1cc(-c2cc(NCCc3c(F)c(F)c4cc(C)oc4c3OC)ncn2)sc1C(=O)O [Ex 55, 5-{6-[2-(4,5-Difluoro-7-methoxy-2-methyl-benzofuran-6-yl)-ethylamino]-pyrimidin-4-yl}-3-ethoxy-thiophene-2-carboxylic acid] | 0.844 µM | 0.335 µM | 0.016 µM | 0.025 µM |
| CCOc1cc(-c2cc(NCCc3ccc4c(c3)CCCO4)ncn2)sc1C(=O)O [Ex 56, 5-[6-(2-Chroman-6-yl-ethylamino)-pyrimidin-4-yl]-3-ethoxy-thiophene-2-carboxylic acid] | 0.538 µM | 0.19 µM | 0.028 µM | 0.027 µM |
| CCOc1cc(-c2cc(NCCc3ccc4ccccc4c3C)ncn2)sc1CCC(=O)O [Ex 57, 3-(3-Ethoxy-5-{6-[2-(1-methyl-naphthalen-2-yl)-ethylamino]-pyrimidin-4-yl}-thiophen-2-yl)-propionic acid] | 0.195 µM | 0.191 µM | 0.028 µM | 0.034 µM |
| CCOc1cc(-c2cc(NCCc3ccc4c(c3)OCC4)ncn2)sc1C(=O)O [Ex 67, 5-{6-[2-(2,3-Dihydro-benzofuran-6-yl)-ethylamino]-pyrimidin-4-yl}-3-ethoxy-thiophene-2-carboxylic acid] | 0.123 µM | 0.11 µM | 0.036 µM | 0.04 µM |
| CCCc1cc(-c2cc(NCCc3ccc4ccccc4c3C)ncn2)cc(F)c1C(=O)O [Ex 74, 2-Fluoro-4-{6-[2-(1-methyl-naphthalen-2-yl)-ethylamino]-pyrimidin-4-yl}-6-propyl-benzoic acid] | 0.45 µM | 0.151 µM | 0.04 µM | 0.257 µM |
| Cc1c(CCNc2cc(-c3ccc(C(=O)O)c(CC(C)C)c3)ncn2)ccc2ccccc12 [Ex 76, 2-Isobutyl-4-{6-[2-(1-methyl-naphthalen-2-yl)-ethylamino]-pyrimidin-4-yl}-benzoic acid] | 0.36 µM | 0.221 µM | 0.042 µM | 0.12 µM |
| CCOc1cc(-c2cc(NCCc3cc4c(cc3SC)OCCO4)ncn2)sc1C(=O)O [Ex 78, 3-Ethoxy-5-{6-[2-(7-methylsulfanyl-2,3-dihydro-benzo[1,4]dioxin-6-yl)-ethylamino]-pyrimidin-4-yl}-thiophene-2-carboxylic acid] | 0.141 µM | 0.219 µM | 0.044 µM | 0.021 µM |
| COc1cc2c(cc1CCNc1cc(-c3ccc4cc(C(=O)O)oc4c3)ncn1)OCCO2 [Ex 81, 6-{6-[2-(7-Methoxy-2,3-dihydro-benzo[1,4]dioxin-6-yl)-ethylamino]-pyrimidin-4-yl}-benzofuran-2-carboxylic acid] | 0.122 µM | 0.123 µM | 0.164 µM | 1.84 µM |
| Cc1c(CCNc2cc(-c3ccc(C(=O)O)c(OC(F)F)c3)ncn2)ccc2ccccc12 [Ex 83, 2-Difluoromethoxy-4-{6-[2-(1-methyl-naphthalen-2-yl)-ethylamino]-pyrimidin-4-yl}-benzoic acid] | 0.274 µM | 0.07 µM | 0.047 µM | 0.255 µM |
| COc1cc2c(cc1CCNc1cc(-c3ccc4oc(C(=O)O)cc4c3)ncn1)OCCO2 [Ex 93, 5-{6-[2-(7-Methoxy-2,3-dihydro-benzo[1,4]dioxin-6-yl)-ethylamino]-pyrimidin-4-yl}-benzofuran-2-carboxylic acid] | 0.275 µM | 0.085 µM | 0.118 µM | 1.26 µM |
